We go through one molecule from ChEMBL document CHEMBL4828766 (J Med Chem, 2021).

Common to all, as to format: functional, cell-based
Assay [1] deals with Melanocyte-stimulating hormone receptor (Mus musculus) (UniProt Q01727). Put plainly: Agonist activity at mouse MC1R expressed in HEK293 cells assessed as induction of cAMP level at 100 uM incubated for 2 hr by alphaScreen assay relative to NDP-MSH. The settings on record: filed as agonist. (cAMP levels reflect the balance of adenylyl cyclase and phosphodiesterase activity.)
Sequence of Melanocyte-stimulating hormone receptor (Mus musculus) (Q01727 whole entry, looked up): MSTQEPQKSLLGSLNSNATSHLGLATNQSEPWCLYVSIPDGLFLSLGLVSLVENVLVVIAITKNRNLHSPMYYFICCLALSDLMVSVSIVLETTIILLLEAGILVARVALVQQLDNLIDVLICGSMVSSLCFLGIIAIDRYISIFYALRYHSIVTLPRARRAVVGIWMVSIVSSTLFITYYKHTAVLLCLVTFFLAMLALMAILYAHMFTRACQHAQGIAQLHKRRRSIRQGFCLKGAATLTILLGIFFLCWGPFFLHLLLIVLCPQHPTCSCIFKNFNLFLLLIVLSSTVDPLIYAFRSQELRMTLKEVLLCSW

For assay [2], the target named is Melanocortin receptor 3 (Mus musculus) (UniProt P33033). Put plainly: Agonist activity at mouse MC3R expressed in HEK293 cells assessed as induction of cAMP level at 100 uM incubated for 2 hr by alphaScreen assay relative to control.
Sequence of Melanocortin receptor 3 (Mus musculus) (P33033 whole entry): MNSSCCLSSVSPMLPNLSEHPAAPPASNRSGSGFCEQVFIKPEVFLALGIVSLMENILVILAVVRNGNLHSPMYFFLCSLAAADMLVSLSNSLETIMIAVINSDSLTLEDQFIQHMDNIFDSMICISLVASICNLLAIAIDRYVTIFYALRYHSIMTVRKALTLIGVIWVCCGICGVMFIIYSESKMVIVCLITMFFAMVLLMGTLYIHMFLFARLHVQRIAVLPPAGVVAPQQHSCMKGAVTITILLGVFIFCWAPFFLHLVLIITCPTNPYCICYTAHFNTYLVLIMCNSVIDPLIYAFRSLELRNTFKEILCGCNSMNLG
In assay [3] the target is Melanocortin receptor 5 (Mus musculus) (UniProt P41149). As to the kind of experiment: Agonist activity at mouse MC5R expressed in HEK293 cells assessed as induction of cAMP level at 100 uM incubated for 2 hr by alphaScreen assay relative to control. The settings on record: filed as agonist.
Sequence of Melanocortin receptor 5 (Mus musculus) (P41149 whole entry): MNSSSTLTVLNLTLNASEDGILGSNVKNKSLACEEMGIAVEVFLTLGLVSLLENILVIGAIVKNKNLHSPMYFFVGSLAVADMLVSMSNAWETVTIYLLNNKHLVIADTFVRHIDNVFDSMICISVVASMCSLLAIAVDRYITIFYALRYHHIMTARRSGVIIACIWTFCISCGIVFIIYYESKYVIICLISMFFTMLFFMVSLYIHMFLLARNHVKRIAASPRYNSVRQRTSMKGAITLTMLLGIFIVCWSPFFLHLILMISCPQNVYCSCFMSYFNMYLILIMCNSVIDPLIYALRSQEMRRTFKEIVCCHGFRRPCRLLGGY
Assay [4] deals with Melanocortin receptor 3 (Mus musculus, UniProt P33033). As to the kind of experiment: Antagonist activity at mouse melanocortin receptor 3 expressed in HEK293 cells assessed as inhibition of NDP-MSH-induced cAMP accumulation incubated for 2 hrs by cAMP Alpha-screen assay based Schild analysis. The settings on record: read-out: pA2 (converted).
Sequence of Melanocortin receptor 3 (P33033 whole entry): as the sequence (P33033 whole entry) above
Assay [5] concerns the target T1, Melanocortin receptor 4 (Mus musculus, UniProt P56450). As to the kind of experiment: Antagonist activity at mouse melanocortin receptor 4 expressed in HEK293 cells assessed as inhibition of NDP-MSH-induced cAMP accumulation incubated for 2 hrs by cAMP Alpha-screen assay based Schild analysis. The settings on record: read-out: pA2 (converted).
The target of assay [6] is T1, Melanocortin receptor 4. Put plainly: Agonist activity at mouse MC4R expressed in HEK293 cells assessed as induction of cAMP level incubated for 2 hr by alphaScreen assay.
Assay [7] addresses T1, Melanocortin receptor 4. Put plainly: Agonist activity at mouse MC4R expressed in HEK293 cells assessed as induction of cAMP level at 100 uM incubated for 2 hr by alphaScreen assay relative to control.

Square brackets hold non-standard residues; d marks the D form. Peptide text beside a SMILES is read from it. dPhe(4-I) = N[C@H](Cc1ccc(I)cc1)C(=O)O; 2Nal = N[C@@H](Cc1ccc2ccccc2c1)C(=O)O; d2Nal = N[C@H](Cc1ccc2ccccc2c1)C(=O)O

T1 sequence (P56450 whole entry): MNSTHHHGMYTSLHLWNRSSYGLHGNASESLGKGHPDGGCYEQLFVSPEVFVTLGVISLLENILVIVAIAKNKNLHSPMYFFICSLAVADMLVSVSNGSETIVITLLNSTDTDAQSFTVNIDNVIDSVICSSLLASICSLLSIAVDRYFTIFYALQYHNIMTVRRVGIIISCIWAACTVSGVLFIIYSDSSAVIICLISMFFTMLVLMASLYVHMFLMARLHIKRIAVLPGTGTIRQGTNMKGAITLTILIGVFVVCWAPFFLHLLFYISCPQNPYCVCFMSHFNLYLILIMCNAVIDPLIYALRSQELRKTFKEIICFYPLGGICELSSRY

What is called EC50 is the midpoint of the concentration-response curve. With `CC(=O)N[C@H](Cc1ccc(I)cc1)C(=O)N[C@H](Cc1ccc2ccccc2c1)C(=O)N[C@@H](Cc1ccc2ccccc2c1)C(=O)N[C@H](CCCCN)C(N)=O` (Ac-[dPhe(4-I)][d2Nal][2Nal][dK]-NH2), the values for the Activity in assay [1], in assay [2] and in assay [3] were 40%, 20% and 50%, respectively. For the same molecule, the Kb in assay [4] and in assay [5] was above 3.16 µM throughout. For the same molecule, the EC50 in assay [6] and in assay [7] was above 100 µM in each case.
